The values that follow come from US7462478B2, “Polynucleotide encoding 2-hydroxyisoflavanone dehydratase and application of the same” (Nihon University, priority 2003, dated 2008).

For assay [1], the target named is T1, recombinant licorice HIDM (Glycyrrhiza echinata, UniProt Q5NUF4).
T1 construct: The NdeI-BamHI fragment of the PCR product from licorice HIDM was cloned into the corresponding sites of pET28a; made in house; host or cells: E. coli BL21 (DE3), vector pET28a, purified with HisTrap Kit
T1 sequence (Q5NUF4 1-328): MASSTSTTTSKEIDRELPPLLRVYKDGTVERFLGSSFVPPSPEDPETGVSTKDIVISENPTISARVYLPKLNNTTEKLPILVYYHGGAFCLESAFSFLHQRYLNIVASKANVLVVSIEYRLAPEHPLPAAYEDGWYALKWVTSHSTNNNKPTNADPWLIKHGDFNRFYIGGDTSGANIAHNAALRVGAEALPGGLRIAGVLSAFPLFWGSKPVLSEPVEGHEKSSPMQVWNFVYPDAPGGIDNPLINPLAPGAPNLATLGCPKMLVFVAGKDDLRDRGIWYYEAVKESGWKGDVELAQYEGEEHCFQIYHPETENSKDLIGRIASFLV
The assay can be described thus: Carboxylesterase activity of recombinant licorice HIDM. It counts as biochemical. On the procedure:
(§1) The specific carboxylesterase activities of recombinant licorice HIDM and soybean HIDH proteins were calculated from the generation rate of p-nitrophenol measured at 30° C. by an absorbance at 400 nm in 1.5 ml of a 50-mM Tris-HCl buffer containing 150 mM of NaCl and 750 nmol of p-nitrophenyl butyrate (Heymann 1981). Commercially-available pig liver carboxylesterase (Sigma Corporation) was used as a positive control. Thermally-denatured (100° C., 10 minutes) licorice HIDM, soybean HIDH, and pig liver carboxylesterase protein were analyzed as negative controls, respectively.

A further assay deals with T2, recombinant soybean HIDH (Glycine max, UniProt Q5NUF3).
T2 construct: the NdeI-BamHI fragment of soybean cDNA (HIDH) was also subcloned into the corresponding sites of the pET28a; made in house; host or cells: E. coli BL21 (DE3), vector pET28a, purified with HisTrap Kit
T2 sequence (Q5NUF3 1-319): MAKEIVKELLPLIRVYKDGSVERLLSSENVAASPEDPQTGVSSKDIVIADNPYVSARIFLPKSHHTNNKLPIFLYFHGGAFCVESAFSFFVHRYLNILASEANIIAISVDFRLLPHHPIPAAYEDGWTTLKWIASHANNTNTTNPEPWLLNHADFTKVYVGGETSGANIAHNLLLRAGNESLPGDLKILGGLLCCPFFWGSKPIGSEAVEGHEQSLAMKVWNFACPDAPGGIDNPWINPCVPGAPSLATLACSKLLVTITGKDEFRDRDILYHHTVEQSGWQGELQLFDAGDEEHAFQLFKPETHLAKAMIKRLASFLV
Nature of the assay: Carboxylesterase activity of recombinant soybean HIDH. Type of assay: biochemical. On the procedure:
as §1

For assay [2], the system named is Carboxylesterase from pig liver. The assay can be described thus: Carboxylesterase activity of pig liver carboxylesterase (positive control). To be noted: rate of p-nitrophenol production, 30° C., absorbance at 400 nm. It counts as biochemical. Here is the method:
as §1

Assay [3] concerns 2-hydroxyisoflavanone dehydratase in cell-free extract of soybean seedling. The assay can be described thus: 2-hydroxyisoflavanone dehydratase assay, soybean crude extract. It counts as biochemical, Glycine max. The note with it: for Specific activity, Soybean Crude extract: rate of isoflavone production, 30° C., 10 minutes, mean ± SD of three experiments. On the procedure:
(§2) All procedures were carried out at 4° C. Licorice cells (10 g) after elicitor treatment (for 24 hours) or 1-week old soybean raised from seeds (10 g) were homogenized in a mortar with 10 ml of a 100-mM potassium phosphate buffer (pH 7.5) containing 10% sucrose and 14 mM of 2-mercaptoethanol and with sea sand (2.5 g). The resulting homogenate was filtered through gauze and then centrifuged at 10,000×g for 10 minutes. Supernatant was mixed with 2.5 g of Dowex 1-X2 (equilibrated with a 100-mM potassium phosphate buffer), followed by standing for 20 minutes. The solution obtained from the filtration was fractionated with ammonium sulfate and a 30-80% saturated fraction was then demineralized through a Sephadex G-25 column and dissolved in a 100-mM potassium phosphate buffer (pH 7.5) containing 10% sucrose and 14-mM 2-mercaptoethanol, followed by being used in the assay (approximately 600 μg/ml of protein).
(§3) An enzyme preparation was added to 2,7,4′-trihydroxyisoflavanone, 2,7-dihydroxy-4′-methoxyisoflavanone, or 2,5,7,4′-tetrahydroxyisoflavanone (5 nmol each) in 2-methoxyethanol so as to be in a total volume of 100 μl, and then the whole was incubated at 30° C. for 10 minutes.
(§4) A concentrated ethyl acetate extract was incubated with recombinant licorice HIDM (1 μg) at 30° C. for 10 minutes. An ethyl acetate extract from the mixture was analyzed by high-performance liquid chromatography (HPLC). The HPLC for both daidzein and formononetin analysis was carried out using a Capcell pak C18 MG column (4.6×150 mm; Shiseido Co., Ltd.) at 40° C. (flow volume=0.8 ml/min) (Non-Patent Document 12) with a linear gradient elution for 40 minutes from 35% to 55% methanol in 3% aqueous acetic acid. 5-Hydroxyisoflavones were analyzed using a Capcell pak C18MG column (4.6×150 mm; Shiseido Co., Ltd.) with a 50% methanol aqueous solution (for genistein) or a 55% methanol aqueous solution (for biochanin A) at 40° C. (flow rate=0.8 ml/min).
(§5) The purified recombinant protein (approximately 10 ng of protein) and cell-free extracts of licorice and soybean (approximately 10 μg of protein) were used to determine their specific activity. The concentration of isoflavone was calculated from the HPL peak area of the standard sample of each of daidzein, formononetin, and genistein.

Assay [4] deals with T3, recombinant soybean HIDH (2-hydroxyisoflavanone dehydratase) (Glycine max, UniProt Q5NUF3).
T3 construct: the NdeI-BamHI fragment of soybean cDNA (HIDH) was also subcloned into the corresponding sites of the pET28a; made in house; host or cells: E. coli BL21 (DE3), vector pET28a, purified with HisTrap Kit
T3 sequence (Q5NUF3 1-319): T2 sequence (Q5NUF3 1-319)
Nature of the assay: 2-hydroxyisoflavanone dehydratase assay, recombinant soybean HIDH. Type of assay: biochemical. To be noted: for Specific activity, Soybean Recombinant protein: purified recombinant protein, rate of isoflavone production, mean ± SD of three experiments. Here is the method:
as §3, §4, §5
(§6) The NdeI-BamHI fragment of the PCR product from licorice HIDM was cloned into the corresponding sites of pET28a (Novagen Ltd.). In addition, the NdeI-BamHI fragment of soybean cDNA (HIDH) was also subcloned into the corresponding sites of the pET28a. The expression and purification of recombinant 2-hydroxyisoflavanone dehydratases were carried out by the following procedures (Non-Patent Document 12). The E. coli BL21 (DE3) cells transformed with the vector containing HIDM or HIDH were incubated up to OD600=0.4 in a LB/ampicillin medium supplemented with 20 ml of 50 μg/ml kanamycin or ampicillin at 30° C. IPTG was added to the culture so as to be a final concentration of 1.0 mM and the whole was incubated at 30° C. for six hours. The licorice HIDM and soybean HIDH were purified from the crude extracts of HIDM and HIDH-expression E. coli using HisTrap Kit (Amersham Biosciences Corporation), respectively.

Assay [5] concerns the target T4, 2-hydroxyisoflavanone dehydratase in cell-free extract of licorice cells (strain AK-1) (Glycyrrhiza echinata, UniProt Q5NUF4).
T4 construct: Licorice cells (10 g) after elicitor treatment (for 24 hours) or 1-week old soybean raised from seeds (10 g) were homogenized; endogenous in cells; host or cells: elicitor-treated licorice cultured cells (strain AK-1); 30-80% ammonium sulfate fraction of the cell-free extract
T4 sequence (Q5NUF4 1-328): T1 sequence (Q5NUF4 1-328)
The assay can be described thus: 2-hydroxyisoflavanone dehydratase assay, licorice crude extract. Type of assay: biochemical. The note with it: for Specific activity, Licorice Crude extract: rate of isoflavone production, 30° C., 10 minutes, mean ± SD of three experiments. On the procedure:
as §2, §3
(§7) A concentrated ethyl acetate extract was incubated with recombinant licorice HIDM (1 μg) at 30° C. for 10 minutes. An ethyl acetate extract from the mixture was analyzed by high-performance liquid chromatography (HPLC). The HPLC for both daidzein and formononetin analysis was carried out using a Capcell pak C18 MG column (4.6×150 mm; Shiseido Co., Ltd.) at 40° C. […] 5-Hydroxyisoflavones were analyzed using a Capcell pak C18MG column (4.6×150 mm; Shiseido Co., Ltd.) with a 50% methanol aqueous solution (for genistein) or a 55% methanol aqueous solution (for biochanin A) at 40° C. […]
as §5

For assay [6], the target named is T5, recombinant licorice HIDM (2-hydroxyisoflavanone dehydratase) (Glycyrrhiza echinata, UniProt Q5NUF4).
T5 construct: The NdeI-BamHI fragment of the PCR product from licorice HIDM was cloned into the corresponding sites of pET28a; made in house; host or cells: E. coli BL21 (DE3), vector pET28a, purified with HisTrap Kit
T5 sequence (Q5NUF4 1-328): T1 sequence (Q5NUF4 1-328)
The assay can be described thus: 2-hydroxyisoflavanone dehydratase assay, recombinant licorice HIDM. The note with it: for Specific activity, Licorice Recombinant protein: purified recombinant protein, rate of isoflavone production, mean ± SD of three experiments. Type of assay: biochemical. Here is the method:
as §3
The assay of 2,5,7-trihydroxy-4′-methoxyisoflavanone dehyderatase (biochanin A synthetase) was carried out as follows. 2,5,7,4′-tetrahydroxyisoflavanone (10 nmol) dissolved in 2-methoxyethanol was incubated together with licorice HI4′OMT (1 μg) and 1 μmol of S-adenosyl-L-methionine (SAM) at 30° C. for 15 minutes.
as §4, §5, §6

For assay [7], the system named is Carboxylesterase from pig liver. Nature of the assay: 2-hydroxyisoflavanone dehydratase assay, carboxylesterase from pig liver. It counts as biochemical. Here is the method:
as §3, §7
The specific carboxylesterase activities of recombinant licorice HIDM and soybean HIDH proteins were calculated from the generation rate of p-nitrophenol measured at 30° C. by an absorbance at 400 nm in 1.5 ml of a 50-mM Tris-HCl buffer containing 150 mM of NaCl and 750 nmol of p-nitrophenyl butyrate (Heymann 1981). […] Thermally-denatured (100° C., 10 minutes) licorice HIDM, soybean HIDH, and pig liver carboxylesterase protein were analyzed as negative controls, respectively.

The subject of assay [8] is 2-hydroxyisoflavanone dehydratase of P. lobata. To be noted: Hakamatsuka et al., 1998; cited from earlier work.
Setting [9] is: rate of p-nitrophenol production, 30° C., absorbance at 400 nm.

Several values for one entry are separate records, joined by “and”; a condition that tells them apart may be missing. Identical values can stand only once.

As to `CCCC(=O)Oc1ccc([N+](=O)[O-])cc1` [p-nitrophenyl butyrate], the “Carboxylesterase activity of recombinant licorice dehydratase” value in assay [1] is on record as “weak activity”. Also, in [1] (setting [9]), the “Specific carboxylesterase activity, Licorice Recombinant protein” value is on record as 0.32 ± 0.07 (f) nkatal/mg. Also, on recombinant soybean HIDH, the “Carboxylesterase activity of recombinant soybean dehydratase” value is “weak activity” and the “Carboxylesterase activity of soybean HIDH as fraction of the pig liver enzyme” value is on record as “approximately 1/50”. Besides, the “Specific carboxylesterase activity, Soybean Recombinant protein” value on recombinant soybean HIDH (setting [9]) is on record as 7.20 ± 0.4 (f) nkatal/mg. In assay [2], the “Specific carboxylesterase activity, Carboxylesterase from pig liver” value is listed as 425 ± 7 (f) nkatal/mg.
For `O=C1c2c(O)cc(O)cc2OC(O)C1c1ccc(O)cc1` (stereo not drawn) [2,5,7,4′-tetrahydroxyisoflavanone], the “Specific activity, Soybean Crude extract” value in assay [3] amounted to 19.6 ± 3 pkatal/mg. Besides, in [3] (soybean extract), the “Production of genistein, level with respect to the production of daidzein” value was “approximately 1/10”. Besides, the “Specific activity, Soybean Recombinant protein” value in assay [4] turned out to be 3.55 ± 0.6 nkatal/mg. Also, the “Product formation by soybean HIDH (HPLC)” value in assay [4] (recombinant soybean HIDH) is on record as “catalyzed the production of genisein”.
Take `COc1ccc(C2C(=O)c3ccc(O)cc3OC2O)cc1` (stereo not drawn) [2,7-dihydroxy-4′-methoxyisoflavanone]: the “Specific activity, Licorice Crude extract” value in assay [5] is recorded as 123.0 ± 8 pkatal/mg. Also, in assay [6], the “Specific activity, Licorice Recombinant protein” value is 52.1 ± 1.5 nkatal/mg. In addition, the “Specific activity of licorice HIDM, times as high as to 2,7,4′-trihydroxyisoflavanone” value in assay [6] (recombinant licorice HIDM) turned out to be 74 times. In addition, in [3], the “Specific activity, Soybean Crude extract” value turned out to be 97.4 ± 10 pkatal/mg. Also, the “Specific activity, Soybean Recombinant protein” value in assay [4] turned out to be 0.90 ± 0.1 nkatal/mg.
On to `COc1ccc(C2C(=O)c3c(O)cc(O)cc3OC2O)cc1` (stereo not drawn) [2,5,7-trihydroxy-4′-methoxyisoflavanone], for which, in [6] (substrate made with HI4′OMT and SAM, HIDM 1 μg, 30° C., 10 minutes), the “Product detected by HPLC after incubation with licorice HIDM” value is on record as “biochanin A was detected”.
As for `O=C1c2ccc(O)cc2OC(O)C1c1ccc(O)cc1` (stereo not drawn) [2,7,4′-trihydroxyisoflavanone], the “Activity (daidzein production), times as small as the production of formononetin” value in assay [5] (licorice extract, versus 2,7-dihydroxy-4′-methoxyisoflavanone) is reported as “approximately 160 times”. In addition, the “Specific activity, Licorice Crude extract” value in [5] is reported as 0.8 ± 0.03 pkatal/mg. Moreover, in assay [6], the “Specific activity, Licorice Recombinant protein” value is recorded as 0.70 ± 0.08 nkatal/mg. For the same molecule, in assay [3], the “Specific activity, Soybean Crude extract” value was found to be 197.3 ± 15 pkatal/mg. In addition, the “Specific activity, Soybean Recombinant protein” value in assay [4] is 43.6 nkatal/mg and 43.6 ± 4 nkatal/mg. In assay [7], the “Dehydration by carboxylesterase from pig liver” value is given as “did not dehydrate”. For the same molecule, the “Specific activity, Carboxylesterase from pig liver (dehydration)” value in assay [7] (rate of isoflavone production) is on record as 0 nkatal/mg. Besides, the “Specific activity of dehydratase of P. lobata” value in assay [8] is listed as 56.8 mkatal/kg protein.
